In patent publication US11583217B2, “Neurophysiological data analysis using spatiotemporal parcellation” (Firefly Neuroscience Ltd., priority 2012, dated 2023):

How the values were obtained:
Format in all cases: in vivo, human
[1] = tested on: ADHD subject; test: BNA pattern similarity from EEG data of ADHD subjects treated with MPH
From the text: The BNA patterns shown in FIGS. 6A-6D are associated subject-specific BNA patterns constructed from EEG data recorded from a particular ADHD subject. The black dots in FIGS. 6A-6D show the locations of the EEG electrodes. The color codes in these BNA patterns are the same as defined above. The subject-specific BNA patterns shown in FIGS. 6A-6B describe the association of the ADHD subject to a group of untreated ADHD subjects, and the BNA patterns shown in FIGS. 6C-6D describe the association of the ADHD subject to a group of ADHD subjects all treated with methylphenidate (MPH). The subject-specific BNA patterns shown in FIGS. 6A and 6C are based on EEG data recorded from the ADHD subject before any treatment, and subject-specific BNA patterns shown in FIGS. 6B and 6D are based on EEG data recorded from the ADHD subject following a treatment with MPH.
The baseline annotated BNA pattern constructed from the group of untreated ADHD subjects, and the baseline annotated BNA pattern constructed from the same group of subjects, but following treatment with MPH are shown in FIGS. 6E and 6F, respectively.
The calculated similarity corresponding to the BNA pattern of FIG. 6A is 0.73, the calculated similarity corresponding to the BNA pattern of FIG. 6B is 0.19, the calculated similarity corresponding to the BNA pattern of FIG. 6C is 0.56, and the calculated similarity corresponding to the BNA pattern of FIG. 6D is 0.6.
The BNA patterns shown in FIGS. 7A-7D were constructed from EEG data recorded from a different ADHD subject, which was also treated with MPH according to the same protocol as described above with respect to the responder subject of FIGS. 6A-6D. The black dots in FIGS. 7A-7D show the locations of the EEG electrodes, and the color codes in these BNA patterns is the same as defined above. Thus, the subject-specific BNA patterns shown in FIGS. 7A-7B describe the association of the ADHD subject to a group of untreated ADHD subjects, and the BNA patterns shown in FIGS. 7C-7D describe the association of the ADHD subject to a group of ADHD subjects all treated with methylphenidate (MPH). The subject-specific BNA patterns shown in FIGS. 7A and 7C are based on EEG data recorded from the ADHD subject before any treatment, and subject-specific BNA patterns shown in FIGS. 7B and 7D are based on EEG data recorded from the ADHD subject following a treatment with MPH.
The calculated similarity corresponding to the BNA pattern of FIG. 7A is 0, the calculated similarity corresponding to the BNA pattern of FIG. 7B is 0, the calculated similarity corresponding to the BNA pattern of FIG. 7C is 0.06, and the calculated similarity corresponding to the BNA pattern of FIG. 7D is 0.

[2] = tested on: groups of subjects; test: Group BNA patterns from EEG data during working memory test (cue/probe); conditions: vs placebo
From the text: FIGS. 10A-10H show group BNA patterns constructed from EEG data recorded from two groups of subjects during a working memory test. The black dots in FIGS. 10A-10H show the locations of the EEG electrodes, and the color codes in these BNA patterns is the same as defined above. During the test, each subject of the group was asked to memorize an image of a human face (referred to as the “cue”). Two seconds later, the subject was again presented with an image of a human face (referred to as the “probe”) and was asked to determine whether the probe matches the cue.
FIGS. 10A and 10B are group BNA patterns constructed following treatment with a placebo (referred to below as placebo A), and FIGS. 10C and 10D are group BNA patterns constructed following treatment with a Scopolamine. The BNA patterns of the second group are shown in FIGS. 10E-10H, where FIGS. 10E and 10F are group BNA patterns constructed following treatment with a placebo (referred to below as placebo B), and FIGS. 10G and 10H are BNA patterns constructed following treatment with a Ketamine.
The BNA pattern of FIGS. 10A, 10C, 10E and 10G were constructed from the data acquired during the time at which the cue was presented and are recognized by the present inventor as containing information pertaining to the memorization process in the brain (also known in the literature as “encoding”). The BNA patterns of FIGS. 10B, 10D, 10F and 10H were constructed from the data acquired during the time at which the probe was presented, and are recognized by the present inventor as containing information pertaining to the retrieval process in the brain. It is noted that the BNA patterns of FIGS. 10A-10H describe differentiating activity networks. Thus, for example, the BNA pattern of FIG. 10A describes the brain activity during […] that most differentiated between placebo A and Scopolamine, and the BNA pattern of FIG. 10B describes the brain activity during […] that most differentiated between placebo B and Ketamine.

[3] = tested on: healthy volunteers; test: Scopolamine induced cognitive impairment model, ΔBNA scores in Auditory Oddball Task; conditions: scopolamine 0.4 mg, Novel stimulus, connectivity score; only 2 patients on placebo
From the text: The task chosen for this study was the Auditory Oddball Task, but other tasks are not excluded from the scope of the present invention. FIG. 21 is a schematic representation of an Auditory Oddball Task used in this study. The task included 600 repetitive 1000 ms auditory stimulations of which 80% were 2000 Hz stimuli (Frequent—blue circles), 10% were 1000 Hz stimuli requiring a motor response (Target—red circles) and 10% were rare non-targets composed of various sounds (Novel—yellow star). The stimuli were separated by 1500 ms intervals. The sound was delivered through a headset at a sound pressure level of 70 dB.
• Repeatability: Within-subject BNA score repeatability was assessed by computing the Intraclass Correlation. • Normality Tests: Normality of ΔBNA distributions was evaluated using the Kolmogorov-Smirnov test of normality (p≥0.200) and validated with corresponding Q-Q plots. • SEM Computation: The change over time in the BNA Scores of a subject/patient from baseline (ΔBNA) is evaluated in terms of standard error of measurements (SEM) against the Normative Database to determine likelihood of true change.
A pharmacological model study included 13 healthy volunteers of both genders, Aged 18-45. […] The second and third sessions were at random order, double blind. ΔBNA Score values (Baseline—Placebo and Baseline—Drug) were evaluated against SEM values. […]

[4] = tested on: healthy volunteer subjects; test: Clinical observation of behavioral endpoint following scopolamine; conditions: following treatment with scopolamine
From the text: (§1) The calculated similarities are 0.937, 0.079, 1.0 and 0.94, respectively. It is recognized by the present inventors that these similarity values indicate that the responsivity to scopolamine is high for the first subject (FIGS. 8A and 8B) and low for the second subject (FIGS. 8C and 8D).

[5] = tested on: healthy volunteer subjects; test: BNA pattern similarity from EEG data of healthy volunteers during attention oddball task, scopolamine vs placebo
From the text: FIGS. 8A-8D show associated subject-specific BNA patterns constructed from EEG data recorded from two healthy volunteer subjects. The black dots in FIGS. 8A-8D show the locations of the EEG electrodes, and the color codes in these BNA patterns are the same as defined above. The subject-specific BNA patterns shown in FIGS. 8A-8D describe the association of the subjects to a group of healthy subjects following treatment with a placebo drug and while performing an attention task related oddball task.
FIGS. 8A and 8C are subject-specific BNA patterns constructed from EEG data collected from a first subject (FIG. 8A) and a second subject (FIG. 8C) following treatment with a placebo, and FIGS. 8B and 8D are subject-specific BNA patterns constructed from EEG data collected from the first subject (FIG. 8B) and the second subject (FIG. 8D) following treatment with a scopolamine drug. Scopolamine is an anticholinergic drug with inhibitory effect on M2-cholinergic receptors of excited type. It has an inhibitory effect on the cerebral cortex, typically inducing slight-anesthetic effect.
as §1

| SMILES | responsiveness to treatment inferred from similarity values ([1]; ADHD subject of FIGS. 6A-6D) | responsiveness to treatment inferred from similarity values ([1]; ADHD subject of FIGS. 7A-7D) | BNA pattern similarity to baseline BNA pattern of untreated ADHD group ([1]; different ADHD subject, following MPH (FIG. 7B), 0 before treatment) | BNA pattern similarity to baseline BNA pattern of MPH-treated ADHD group ([1]; different ADHD subject, following MPH (FIG. 7D), 0.06 before treatment) | BNA pattern similarity to baseline BNA pattern of untreated ADHD group ([1]; responder ADHD subject, following single dose MPH (FIG. 6B), 0.73 before treatment) | BNA pattern similarity to baseline BNA pattern of MPH-treated ADHD group ([1]; responder ADHD subject, following single dose MPH (FIG. 6D), 0.56 before treatment) | central and frontal activation in the group BNA pattern [2] | fronto-parietal part of the group BNA pattern [2] | right lateralization in the group BNA pattern [2] | patients with post-treatment BNA scores more than 2 SEM lower than the baseline score [3] | decrease in behavioral endpoint ([4]; first subject) | change in behavioral endpoint ([4]; second subject) | responsivity to scopolamine ([5]; first subject (FIGS. 8A and 8B)) | BNA pattern similarity to baseline BNA pattern of placebo-treated healthy group ([5]; first subject, following scopolamine (FIG. 8B), 0.937 after placebo) | responsivity to scopolamine ([5]; second subject (FIGS. 8C and 8D)) | BNA pattern similarity to baseline BNA pattern of placebo-treated healthy group ([5]; second subject, following scopolamine (FIG. 8D), 1.0 after placebo) |
| --- | --- | --- | --- | --- | --- | --- | --- | --- | --- | --- | --- | --- | --- | --- | --- | --- |
| COC(=O)C(c1ccccc1)C1CCCCN1 (stereo not drawn) [MPH, methylphenidate] | responsive to the treatment | not responsive to the treatment | 0 | 0 | 0.19 | 0.6 | – | – | – | – | – | – | – | – | – | – |
| CNC1(c2ccccc2Cl)CCCCC1=O (stereo not drawn) [ketamine] | – | – | – | – | – | – | increased central and frontal activation | No significant change | decreased right lateralization | – | – | – | – | – | – | – |
| CN1[C@@H]2C[C@@H](OC(=O)[C@H](CO)c3ccccc3)C[C@H]1[C@@H]1O[C@@H]12 [scopolamine] | – | – | – | – | – | – | extensive compensatory central and frontal activation | low connectivity between frontal and parietal regions | – | Eight out of 13 | 70% | no change | high | 0.079 | low | 0.94 |
